# Biological target: T1, Gag-Pol polyprotein [588-1027]/[588-1147] (Human immunodeficiency virus 1, UniProt P04585)
# T1 construct: 588-1027; 588-1147
# Assay: HIV-1 RT Assay
# Conditions: pH 7.8; 37 °C
smiles,measurement,value
"CCC(c1ccccc1)c1cc(=O)[nH]c(SC2CCCC2)n1 (stereo unspecified) [2-(cyclopentylsulfanyl)-6-(1-phenylpropyl)-3,4-dihydropyrimidin-4-one]",IC50,> 10 µM

# Source: BindingDB's records for doi:10.1021/jm010853h (Sapienza University of Rome, 2001)
